Assay results: ChEMBL document CHEMBL1201862, “PubChem BioAssay data set” (2004)
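Step 1: Grow cells in 96-well plates. Step 2: Expose to compound for 48 hours at 5 concentrations. Step 3: Interpolate endpoints linearly; if unreached, use highest concentration. GI50 is the concentration that inhibits growth by half.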 Activity calls are given as the source filed them. Rule as the data show it: active = GI50 up to about 1.1 µM and inactive = higher.

Key:
Experiment in all cases: growth of human tumour cells (NCI), 48 h
786-0 = system: 786-0
A498 = system: A498
BT-549 = system: BT-549
CAKI-1 = system: CAKI-1
CCRF-CEM = system: CCRF-CEM
COLO 205 = system: COLO 205
IGROV-1 = system: IGROV-1
MDA-MB-231 = system: MDA-MB-231
MOLT-4 = system: MOLT-4
NCI-H226 = system: NCI-H226
NCI/ADR-RES = system: NCI/ADR-RES
OVCAR-4 = system: OVCAR-4
RPMI-8226 = system: RPMI-8226
SF-268 = system: SF-268
SK-MEL-2 = system: SK-MEL-2
SK-MEL-5 = system: SK-MEL-5
SW-620 = system: SW-620
T47D = system: T47D
U-251 = system: U-251
UACC-257 = system: UACC-257

Measured: GI50

COc1cc(OC)c2nc(C)c3c(c2c1)OCC3
inactive: 786-0 61.1 µM | A498 > 100 µM | BT-549 > 100 µM | CAKI-1 19.8 µM | CCRF-CEM > 100 µM | COLO 205 > 100 µM | IGROV-1 > 100 µM | MDA-MB-231 12.6 µM | MOLT-4 > 100 µM | NCI-H226 > 100 µM | NCI/ADR-RES > 100 µM | OVCAR-4 > 100 µM | RPMI-8226 > 100 µM | SF-268 47.2 µM | SK-MEL-2 > 100 µM | SK-MEL-5 > 100 µM | SW-620 > 100 µM | T47D > 100 µM | U-251 35 µM | UACC-257 > 100 µM

O=P(O)(O)CN1CCN(CP(=O)(O)O)CCN(CP(=O)(O)O)CCN(CP(=O)(O)O)CC1
inactive: 786-0 > 100 µM | A498 62.5 µM | BT-549 35.6 µM | CAKI-1 > 100 µM | CCRF-CEM 44.9 µM | COLO 205 32.4 µM | IGROV-1 > 100 µM | MDA-MB-231 > 100 µM | MOLT-4 41.3 µM | NCI-H226 > 100 µM | NCI/ADR-RES > 100 µM | OVCAR-4 > 100 µM | RPMI-8226 21.2 µM | SF-268 > 100 µM | SK-MEL-2 32.8 µM | SK-MEL-5 > 10 µM | SW-620 42.6 µM | T47D > 100 µM | U-251 45.6 µM | UACC-257 > 100 µM

CCCCN(CC)c1nc(C)nc2c1c(C)c(C)n2-c1c(C)cc(C)cc1C [ANTALARMIN]
inactive: 786-0 16.5 µM | A498 16.9 µM | BT-549 19.7 µM | CAKI-1 13.9 µM | CCRF-CEM 11.3 µM | COLO 205 15.6 µM | IGROV-1 14.5 µM | MDA-MB-231 14.2 µM | MOLT-4 10.9 µM | NCI-H226 14.8 µM | NCI/ADR-RES 13.6 µM | OVCAR-4 16.3 µM | RPMI-8226 7.87 µM | SF-268 17.4 µM | SK-MEL-2 12.9 µM | SK-MEL-5 5.21 µM | SW-620 15.7 µM | T47D 10.7 µM | U-251 11.7 µM | UACC-257 13.3 µM
